Measured values published in patent US8143313B2, “Compositions and methods for preventing or treating an inflammatory response” (McGill University, priority 2004, dated 2012).

Tests used:
CFTE29o- = test: Apoptosis, in situ end labeling of DNA strand breaks, CFTR-deficient cells; assay type: cell-based, human; details: for apoptosis by fluorescein staining: no TNF-α
Experimental: (§1) Adherent epithelial cell lines, CFTE29o- and 9HTEo-, grown on coated coverslips for 24 hours, were treated with fenretinide at the same concentrations used to determine IL-8 release as indicated supra. After a 24-hour incubation with fenretinide, cells were stimulated with TNF-α (experimental group) or with Cisplatin at […] (as a positive control) for an additional 24 hours. Cells were fixed in 4% paraformaldehyde in PBS at pH 7.4 for one hour at room temperature. Cells were subsequently washed and permeabilized using 0.1% TRITON™ X-100 in 0.1% citrate buffer for 2 minutes on ice. After being washed, the coverslips were individually removed from 24-well plates and cells were incubated for one hour at 37° C. with terminal deoxynucleotidyl transferase (Tdt) enzyme conjugated to fluorescein (Roche Diagnostics, Indianapolis, Ind.) for visualization. A negative slide was produced by incubating a slide of both cell lines with buffer minus the Tdt enzyme. The Tdt enzyme binds to the free hydroxyl end of DNA strand breaks. Subsequently, cells were washed twice with PBS and coverslips were placed on slides in the presence of the anti-fade medium VECTASHIELD® to facilitate fluorescence preservation. Slides were individually labeled with numbers to keep the investigator blinded to the outcome until after the slides were reviewed. Four randomly selected fields were visualized at 400× (total magnification) using a fluorescence microscopy and cells that appeared brightly flourescent were counted. Pictures were taken to estimate the number of positive to negative cells per field.

[1] = system: normal human epithelial cells (9HTEo-); test: Proliferation (viable cell counts) of normal human epithelial cells; assay type: cell-based; details: pro-inflammatory and non-inflammatory state, in particular 2.5 μM and higher
Experimental: 9HTEo- (0.4×10^6/well in a 24-well plate) cells were incubated with 1.25 μM, 2.5 μM or 5 μM of fenretinide for 24 hours in a MEM containing 10% FBS. Vehicle control wells contained ethanol (EtOH) at concentrations equivalent to those used with fenretinide treatments.
(§2) 9HTEo- cells were incubated with 1.25 μM, 2.5 μM or 5 μM of fenretinide for 24 hours in a MEM containing 10% FBS. After 24 hours, the medium was replaced by MEM 2% FBS containing the same concentrations of fenretinide and stimulated with TNF-α for another 24 hours.
Treatment with Fenretinide and TNF-α. Normal and CFTR-deficient cells were treated with fenretinide (Wang, et al. (2001) Cancer Res. 61:5102-5105; Erdreich-Epstein, et al. (2002) supra) at doses known to effectively increase cellular ceramide content in cell culture. […]
(§3) Cell viability was assessed using a 3-(4,5-dimethylthiazol-2-yl)-2,5-diphenyltetrazolium bromide (MTT) assay according to standard methods (Mosmann, T. (1983) J. Immunol. Methods. 65:55-63). […] Cells were incubated for 4 hours at 37° C., supernatant was aspirated, HCl-isopropanol solution (0.04 N HCl in isopropanol) was added, and after 5 minutes the optical densities were measured at 540 nm. […]

9HTEo- = test: Apoptosis, in situ end labeling of DNA strand breaks, non-cystic fibrosis cells; assay type: cell-based, human; details: for apoptosis by fluorescein staining: no TNF-α
Experimental: as §1

normal cells (9HTEo-) = test: IL-8 release (ELISA) by normal human tracheal epithelial cells; assay type: cell-based
Experimental: (§4) General Procedures. Normal (9HTEo-) and CFTR-deficient human tracheal epithelial cells (CFTE29o- ΔF508 CFTR) were used in the analysis disclosed herein and grown in pre-coated T-75 flasks in a medium containing 10% fetal bovine serum (FBS). Cells were re-fed every 2-3 days until they reached confluency. Adherent monolayers were released from the plastic surface after treatment with trypsin-EDTA (Sigma-Aldrich Co., St. Louis, Mo.) and split into 24-well plates for about 24 hours before receiving treatments.
(§5) Treatment with Fenretinide and TNF-α. Normal and CFTR-deficient cells were treated with fenretinide (Wang, et al. (2001) Cancer Res. 61:5102-5105; Erdreich-Epstein, et al. (2002) supra) at doses known to effectively increase cellular ceramide content in cell culture. Normal (9HTEo-; 0.4×10^6 cells/well) and CFTR-deficient human epithelial cells (CFTE29o- ΔF508 CFTR; 0.6×10^6 cells/well) were incubated for 24 hours at 37° C. in 5% CO2 with 1.25 μM, 2.5 μM or 5 μM fenretinide in Eagle's minimum essential medium (MEM) containing 10% fetal bovine serum (FBS). Subsequently, the medium was replaced with fresh MEM 2% FBS containing the same initial concentrations of fenretinide and cells were grown for an additional 24 hours to characterize the impact of fenretinide on IL-8 release in a non-inflammatory condition. To characterize the inflammatory condition, cells were treated with MEM 2% FBS containing 1.25 μM, 2.5 μM or 5 μM fenretinide and concurrently stimulated with human recombinant TNF-α (10 ng/mL) for another 24 hours. All experiments included unstimulated negative control wells.
IL-8 Release and Cell Viability Assays. Supernatants were collected from treated cells and the amount of IL-8 released into the medium was determined using an enzyme-linked immunosorbent assay (ELISA) kit (OPTEIA™ Human IL-8 Set; BD PHARMINGEN™, San Diego, Calif.). Briefly, 96-well plates were coated overnight with capture antibody, washed with PBS, 0.05% TWEEN®-20 and coated with PBS, 10% heat-inactivated FBS. […] The reaction was stopped using a 2NH2SO4 solution and the absorbance was read at 450 nm.

Pseudomonas aeruginosa = test: Pulmonary infection of CFTR knockout and wild-type mice with P. aeruginosa; assay type: in vivo, mouse
Excerpt: Homogenous C57BL/6 Cftr^unc knockout mice generated by insertion of a stop codon in exon 10 of Cftr gene are well-known in the art (Snouwaert, et al. (1992) Science 257:1083-8; Gosselin, et al. (1998) Am. J. Respir. Crit. Care Med. 157:1253-62). Mice used in these studies represent offsprings from B6-Cftr^unc (+/−) mice backcrossed to C57BL/6 mice for 10 to 12 generations.
Housing Conditions. B6-Cftr (−/−) and B6-Cftr (+/+) mice were housed on corn cob bedding (Anderson, Maumee, Ohio) and fed sterile PEPTAMEN® (Clintec Nutrition, Deerfield, Ill.), a low-residue liquid diet which was previously shown to prevent intestinal obstruction in Cftr^unc knockout mice (Eckman, et al. (1995) Am. J. Physiol. 269:L625-L630). A standard diet was used (Gosselin, et al. (1998) supra), wherein the caloric content of the diet was 420 KJ/100 mL and an adult mouse consumes approximately 15 mL/day. In order to maintain the sterility of the diet, it was changed daily. For one month prior to pulmonary infection with P. aeruginosa, mice were provided fenretinide (prepared in PEPTAMEN®) in the drinking water at 5 mg/kg body weight. The dose was set for each individual mouse based on its weight and adjusted every week (e.g., 147 μg/mouse/day for 30 gram mouse).
Infection of Mice. […] The number of viable P. aeruginosa entrapped in agar beads was determined by plating serial dilutions of the homogenized bead suspension on TSA plates. […]
Bronchoalveolar Lavages (BAL). […] Alveolar cells were centrifuged, resuspended in 1 mL PBS, stained with Turk's solution and counted. The proportions of macrophages, lymphocytes, and polymorphonuclear leukocytes (PMN) were calculated after counting 200 alveolar cells on cytospin preparations stained with DIFF-QUICK® (American Scientific Products, McGaw Park, Ill.).
Measurement of Bacterial Burden. […] Serial 10-fold dilutions of homogenates were plated on petri dishes containing TSA and the number of colony-forming units (CFU) per organs was counted after overnight incubation at 37° C. […]

[2] = system: CFTR-deficient human epithelial cells (CFTE29o-); test: Proliferation (viable cell counts) of CFTR-deficient human epithelial cells; assay type: cell-based
Experimental: CFTE29o- (0.6×10^6/well in a 24-well plate) cells were incubated with 1.25 μM, 2.5 μM or 5 μM of fenretinide for 24 hours in a MEM containing 10% FBS. Vehicle control wells contained ethanol (EtOH) at concentrations equivalent to those used with fenretinide treatments.
as §2, with “CFTE29o-” for “9HTEo-”, “hours. Viable cell counts were determined.” for “hours.”
as §5, §3

[3] = system: CFTR-deficient cells (CFTE29o-); test: IL-8 release (ELISA) by CFTR-deficient human tracheal epithelial cells; assay type: cell-based
Experimental: as §4, §5
IL-8 Release and Cell Viability Assays. Supernatants were collected from treated cells and the amount of IL-8 released into the medium was determined using an enzyme-linked immunosorbent assay (ELISA) kit (OPTEIA™ Human IL-8 Set; BD PHARMINGEN™, San Diego, Calif.). Briefly, 96-well plates were coated overnight with capture antibody, washed with PBS, 0.05% TWEEN®-20 and coated with PBS, 10% heat-inactivated FBS. Known concentrations of IL-8 (standard) and supernatants containing released IL-8 were added as aliquots into appropriate wells, incubated for 2 hours and subsequently decanted from the wells. Enzyme-conjugated anti-IL-8 antibody was added and incubated for 1 hour. After washing the plate, a substrate for the enzyme was added and the plate incubated for 30 minutes. The reaction was stopped using a 2NH2SO4 solution and the absorbance was read at 450 nm.

[4] = oral, once a day, 28-day courses, cited from earlier work
[5] = CFTR-deficient and wild-type mice, 5 mg/kg for one month before challenge, 3 days post-infection

N.N.[Cl][Pt][Cl] [cisplatin]
apoptotic effect of positive control (CFTE29o-; CFTR-deficient epithelial cells, as opposed to non-cystic fibrosis cells): resistant to the apoptotic effects

CC1=C(/C=C/C(C)=C/C=C/C(C)=C/C(=O)Nc2ccc(O)cc2)C(C)(C)CCC1 [fenretinide, all-trans-N-(4-hydroxyphenyl)retinamide]
cell proliferation [1]: significant decrease in cell proliferation
apoptosis in the presence of TNF-α (9HTEo-; TNF-α, both doses (1.25 and 2.5 μM)): significant apoptosis
apoptosis by fluorescein staining (9HTEo-; 1.25 μM): weaker fluorescence and an earlier stage of apoptosis
apoptosis by fluorescein staining (9HTEo-; 2.5 μM): strong fluorescence and classic apoptotic morphology
IL-8 maximum level as % of that secreted by TNF-α-stimulated cells (normal cells (9HTEo-); 9HTEo-, TNF-α 10 ng/mL, fenretinide 1.25-5 μM): 139%
threshold level of IL-8 enhancement (normal cells (9HTEo-); 9HTEo-, TNF-α-stimulated): 2.5 µM
enhancement in basal IL-8 release (normal cells (9HTEo-); non-cystic fibrosis cells, no TNF-α, all treatment doses): greater than 14 fold
bacterial burden in lungs (Pseudomonas aeruginosa; [5]): reduced
recruitment of inflammatory cells to the lungs (Pseudomonas aeruginosa; [5]): decrease in the recruitment of inflammatory cells
reduction in P. aeruginosa cell numbers as compared to controls (Pseudomonas aeruginosa; cystic fibrosis mice pretreated with fenretinide): approximately 40%
cell numbers ([2]; CFTR-deficient cells, non-inflammatory condition, 2.5 μM): decrease in CFTR-deficient epithelial cell numbers
cell proliferation ([2]; CFTR-deficient cells, pro-inflammatory and non-inflammatory state, in particular 2.5 μM and higher): significant decrease in cell proliferation
cell numbers ([2]; cystic fibrosis cells, 1.25 μM): did not show a decrease in cell numbers
IL-8 level as % of the TNF-α-stimulated value, dose-dependent reduction ([3]; CFTE29o-, TNF-α 10 ng/mL, fenretinide 1.25-5 μM, greatest reduction): 70%
threshold level for significance of IL-8 reduction ([3]; CFTE29o-, TNF-α-stimulated): 2.5 µM
activity at 1.25 µM ([3]; Homo sapiens, Epithelial cell, CFTE29o-, TNF-α 10 ng/mL, 1.25 μM fenretinide, not significantly different from control, read-out: IL-8 level as % of control (TNF-α only)): 86%
increase of IL-8 levels in the absence of TNF-α stimulation ([3]; cystic fibrosis cells, no TNF-α, fenretinide 1.25-5 μM, dose-dependent): 2- to 8 fold
apoptosis in the presence of TNF-α (CFTE29o-; CFTR-deficient cells, TNF-α, 1.25 and 2.5 μM): no enhancement of apoptosis
apoptosis by fluorescein staining (CFTE29o-; CFTR-deficient cells, 1.25 μM): no morphology of apoptosis, weak fluorescence was observed
apoptosis by fluorescein staining (CFTE29o-; CFTR-deficient cells, 2.5 μM): early stage apoptosis
subjects with side effects ([4]; subjects 2-21 years with neuroblastoma): 15 of the 45
time to reversal of side effects after discontinuation of treatment [4]: ≤ 7 days
